Earlier results, collected in patent US20100047803A1, “BIOMARKERS FOR ACETAMINOPHEN TOXICITY” (priority 2008, published 2010).

What was measured:
[1] = administration after hepatic failure has developed
[2] = tested on: CYP2E1, CYP1A2, and CYP3A4; conditions: by CYP2E1, CYP1A2, and CYP3A4

Row | share of acetaminophen converted to NAPQI [2] [%] | SMILES | reduction in mortality [1]
1 | – | CC(=O)N[C@@H](CS)C(=O)O [N-acetylcysteine] | 21-28%
2 | 5 to 9 | CC(=O)Nc1ccc(O)cc1 [acetaminophen, Acetaminophen] | –
